Results as given in US20260274833A1 (NiKang Therapeutics, Inc., priority 2022, published 2026).

Target: T1, CDK2 (Homo sapiens, UniProt P24941)
T1 construct: endogenous in cells; host or cells: OVCAR3 cells
Assay: Phospho-RB measurement in OVCAR3 cells (HTRF phospho-RB cellular kit)
Assay type: cell-based
Settings: inhibition of RB phosphorylation at S807/811 (HTRF, TR-FRET ratio 665/620), 24 h compound treatment, 0.3 to 10,000 nM
Summary of the method: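 IC50 came from a four-parameter logistic fit of the DMSO-normalized TR-FRET ratio (665/620 nm). That ratio reflects RB phosphorylation at S807/811, read with an HTRF antibody pair 4 h after adding lysate at room temperature.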

| Structure (SMILES) | IC50 |
| --- | --- |
| CN(C)Cc1ccc2c(c1)CN(S(=O)(=O)Nc1cccc(-c3nc(C(C)(C)C)sc3-c3ccnc(NC4CCN(S(C)(=O)=O)CC4)n3)c1F)C2 [Example 171, N-(3-(2-(tert-butyl)-5-(2-((1-(methylsulfonyl)-piperidin-4-yl)amino)-pyrimidin-4-yl)thiazol-4-yl)-2-fluoro-phenyl)-5-((dimethylamino)methyl)-isoindoline-2-sulfonamide] | 2120 nM |
| CNCc1cccc2c1CN(S(=O)(=O)Nc1cccc(-c3nc(C(C)(C)C)sc3-c3ccnc(NC4CCN(S(C)(=O)=O)CC4)n3)c1F)C2 [Example 172, N-(3-(2-(tert-butyl)-5-(2-((1-(methylsulfonyl)-piperidin-4-yl)amino)-pyrimidin-4-yl)thiazol-4-yl)-2-fluoro-phenyl)-4-((methylamino)methyl)-isoindoline-2-sulfonamide] | 3170 nM |
| CN(C1CNC1)S(=O)(=O)N1CCC(Nc2nccc(-c3sc(C(C)(C)C)nc3-c3cccc(NS(=O)(=O)N4Cc5ccccc5C4)c3F)n2)CC1 [Example 173, N-(3-(5-(2-((1-(N-(azetidin-3-yl)-N-methylsulfamoyl)piperidin-4-yl)amino)-pyrimidin-4-yl)-2-(tert-butyl)thiazol-4-yl)-2-fluorophenyl) isoindoline-2-sulfonamide] | 385 nM |
| CC(C)(C)c1nc(-c2cccc(NS(=O)(=O)N3CCC4(CCC4)C3)c2F)c(-c2ccnc(NC3CCN(S(C)(=O)=O)CC3)n2)s1 [Example 174, N-(3-(2-(tert-butyl)-5-(2-((1-(methylsulfonyl)-piperidin-4-yl)amino)-pyrimidin-4-yl)thiazol-4-yl)-2-fluoro-phenyl)-6-azaspiro [3.4]octane-6-sulfonamide] | 853 nM |
| CC(C)(C)c1nc(-c2cccc(NS(=O)(=O)N3CCC4(CC4)C3)c2F)c(-c2ccnc(NC3CCN(S(=O)(=O)N4CCNCC4)CC3)n2)s1 [Example 175, N-(3-(2-(tert-butyl)-5-(2-((1-(piperazin-1-ylsulfonyl)piperidin-4-yl)amino)-pyrimidin-4-yl)thiazol-4-yl)-2-fluoro-phenyl)-5-azaspiro [2.4]heptane-5-sulfonamide] | 943 nM |
| CC(C)(C)c1nc(-c2cccc(NS(=O)(=O)N3CCC4(CCCC4)C3)c2F)c(-c2ccnc(NC3CCN(S(=O)(=O)N4CCNCC4)CC3)n2)s1 [Example 176, N-(3-(2-(tert-butyl)-5-(2-((1-(piperazin-1-ylsulfonyl)piperidin-4-yl)amino)-pyrimidin-4-yl)thiazol-4-yl)-2-fluoro-phenyl)-2-azaspiro[4.4] nonane-2-sulfonamide] | 1920 nM |
| CC(C)(C)c1nc(-c2cccc(NS(=O)(=O)N3CCC4(CCC4)C3)c2F)c(-c2ccnc(NC3CCN(S(=O)(=O)N4CCNCC4)CC3)n2)s1 [Example 177, N-(3-(2-(tert-butyl)-S-(2-((1-(piperazin-1-ylsulfonyl)piperidin-4-yl)amino)-pyrimidin-4-yl)thiazol-4-yl)-2-fluoro-phenyl)-6-azaspiro[3.4] octane-6-sulfonamide] | 1020 nM |
| CC(C)c1nc(-c2cccc(NS(=O)(=O)N3CCc4ccccc43)c2F)c(-c2ccnc(NC3CCN(S(=O)(=O)N4CCNCC4)CC3)n2)s1 [Example 178, N-(2-fluoro-3-(2-isopropyl-5-(2-((1-(piperazin-1-ylsulfonyl)piperidin-4-yl)amino)pyrimidin-4-yl)thiazol-4-yl)phenyl)indoline-1-sulfonamide] | 203 nM |
| CN1CC(N(C)S(=O)(=O)N2CCC(Nc3nccc(-c4sc(C(C)(C)C)nc4-c4cccc(NS(=O)(=O)N5Cc6ccccc6C5)c4F)n3)CC2)C1 [Example 179, N-(3-(2-(tert-butyl)-5-(2-((1-(N-methyl-N-(1-methylazetidin-3-yl)sulfamoyl)-piperidin-4-yl)amino)pyrimidin-4-yl)-thiazol-4-yl)-2-fluorophenyl)-isoindoline-2-sulfonamide] | 241 nM |
| CC(C)(C)c1nc(-c2cccc(NS(=O)(=O)N3CCC4(CC4)C3)c2F)c(-c2ccnc(NC3CC4(C3)CS(=O)(=O)C4)n2)s1 [Example 180, N-(3-(2-(tert-butyl)-5-(2-((2,2-dioxido-2-thiaspiro[3.3]heptan-6-yl)amino)-pyrimidin-4-yl)thiazol-4-yl)-2-fluoro-phenyl)-5-azaspiro[2.4] heptane-5-sulfonamide] | 2820 nM |
| CNCCOc1cccc2c1CCN2S(=O)(=O)Nc1cccc(-c2nc(C(C)(C)C)sc2-c2ccnc(NC3CCN(S(C)(=O)=O)CC3)n2)c1F [Example 181, N-(3-(2-(tert-butyl)-5-(2-((1-(methylsulfonyl)-piperidin-4-yl)amino)-pyrimidin-4-yl)thiazol-4-yl)-2-fluoro-phenyl)-4-(2-(methylamino)-ethoxy)-indoline-1-sulfonamide] | 1890 nM |
| CC(C)(C)c1nc(-c2cccc(NS(=O)(=O)N3CCC4(CCC4)C3)c2F)c(-c2ccnc(NC3CC4(C3)CS(=O)(=O)C4)n2)s1 [Example 182, N-(3-(2-(tert-butyl)-5-(2-((2,2-dioxido-2-thiaspiro[3.3]heptan-6-yl)amino)-pyrimidin-4-yl)thiazol-4-yl)-2-fluoro-phenyl)-6-azaspiro[3.4] octane-6-sulfonamide] | 1190 nM |
| CNS(=O)(=O)N1CCC(Nc2nccc(-c3sc(C(C)(C)C)nc3-c3cccc(NS(=O)(=O)N4CCc5ccc(C#N)cc54)c3F)n2)CC1 [Example 183, N-(3-(2-(tert-butyl)-5-(2-((1-(N-methyl-sulfamoyl)piperidin-4-yl)amino)-pyrimidin-4-yl)thiazol-4-yl)-2~fluoro-phenyl)-6-cyano-indoline-1-sulfonamide] | 133 nM |
| CN(C)S(=O)(=O)Nc1cccc(-c2nc(C(C)(C)C)sc2-c2ccnc(NC3CC4(C3)CS(=O)(=O)C4)n2)c1F [Example 184, N-(3-(2-(tert-butyl)-5-(2-((2,2-dioxido-2-thiaspiro[3.3]heptan-6-yl)amino)-pyrimidin-4-yl)thiazol-4-yl)-2-fluoro-phenyl)dimethyl-aminesulfonamide] | 1540 nM |
| CC(C)(C)c1nc(-c2cccc(NS(=O)(=O)N3Cc4cccc(C#N)c4C3)c2F)c(-c2ccnc(NC3CCN(S(C)(=O)=O)CC3)n2)s1 [Example 185, N-(3-(2-(tert-butyl)-5-(2-((1-(methylsulfonyl)-piperidin-4-yl)amino)-pyrimidin-4-yl)thiazol-4-yl)-2-fluoro-phenyl)-4-cyanoisoindoline-2-sulfonamide] | 55 nM |
| CC(C)(C)c1nc(-c2cccc(NS(=O)(=O)N3CCC(F)(F)C3)c2F)c(-c2ccnc(NC3CC4(C3)CS(=O)(=O)C4)n2)s1 [Example 186, N-(3-(2-(tert-butyl)-5-(2-((2,2-dioxido-2-thiaspiro[3.3]heptan-6-yl)amino)-pyrimidin-4-yl)thiazol-4-yl)-2-fluoro-phenyl)-3,3-difluoropyrrolidine-1-sulfonamide] | 1180 nM |
| CC(C)(C)c1nc(-c2cccc(NS(=O)(=O)N3Cc4ccncc4C3)c2F)c(-c2ccnc(NC3CC4(C3)CS(=O)(=O)C4)n2)s1 [Example 187, N-(3-(2-(tert-butyl)-5-(2-((2,2-dioxido-2-thiaspiro[3.3]heptan-6-yl)amino)-pyrimidin-4-yl)thiazol-4-yl)-2-fluoro-phenyl)-1,3-dihydro-2H-pyrrolo[3,4-c]-pyridine-2-sulfonamide] | 194 nM |
| CN(C)CCOc1ccc2c(c1)N(S(=O)(=O)Nc1cccc(-c3nc(C(C)(C)C)sc3-c3ccnc(NC4CCN(S(C)(=O)=O)CC4)n3)c1F)CC2 [Example 188, N-(3-(2-(tert-butyl)-5-(2-((1-(methylsulfonyl)-piperidin-4-yl)amino)-pyrimidin-4-yl)thiazol-4-yl)-2-fluoro-phenyl)-6-(2-(dimethylamino)-ethoxy)-indoline-1-sulfonamide] | 1660 nM |
| CN(C)Cc1ccc2c(c1)CCN2S(=O)(=O)Nc1cccc(-c2nc(C(C)(C)C)sc2-c2ccnc(NC3CCN(S(C)(=O)=O)CC3)n2)c1F [Example 189, N-(3-(2-(tert-butyl)-5-(2-((1-(methylsulfonyl)-piperidin-4-yl)amino)-pyrimidin-4-yl)thiazol-4-yl)-2-fluoro-phenyl)-5-((dimethylamino)-methyl)-indoline-1-sulfonamide] | 1550 nM |
| CC(C)(C)c1nc(-c2cccc(NS(=O)(=O)N3CCc4ncccc43)c2F)c(-c2ccnc(NC3CC4(C3)CS(=O)(=O)C4)n2)s1 [Example 190, N-(3-(2-(tert-butyl)-5-(2-((2,2-dioxido-2-thiaspiro[3.3]heptan-6-yl)amino)-pyrimidin-4-yl)thiazol-4-yl)-2-fluoro-phenyl)-2,3-dihydro-1H-pyrrolo[3,2-b]-pyridine-1-sulfonamide] | 259 nM |
| CCN(CC)S(=O)(=O)Nc1cccc(-c2nc(C(C)(C)C)sc2-c2ccnc(NC3CC4(C3)CS(=O)(=O)C4)n2)c1F [Example 191, N-(3-(2-(tert-butyl)-5-(2-((2,2-dioxido-2-thiaspiro[3.3]heptan-6-yl)amino)-pyrimidin-4-yl)thiazol-4-yl)-2-fluoro-phenyl)-diethylamine-sulfonamide] | 8620 nM |
| CC(C)(C)c1nc(-c2cccc(NS(=O)(=O)N3CCc4ccccc43)c2F)c(-c2ccnc(NC3CC4(C3)CS(=O)(=O)C4)n2)s1 [Example 192, N-(3-(2-(tert-butyl)-5-(2-((2,2-dioxido-2-thiaspiro[3.3]heptan-6-yl)amino)-pyrimidin-4-yl)thiazol-4-yl)-2-fluoro-phenyl)indoline-1-sulfonamide] | 88.2 nM |
| CC(C)(C)c1nc(-c2cccc(NS(=O)(=O)N3CCc4c(C#N)cccc43)c2F)c(-c2ccnc(NC3CC4(C3)CS(=O)(=O)C4)n2)s1 [Example 193, N-(3-(2-(tert-butyl)-5-(2-((2,2-dioxido-2-thiaspiro[3.3]heptan-6-yl)amino)-pyrimidin-4-yl)thiazol-4-yl)-2-fluoro-phenyl)-4-cyanoindoline-1-sulfonamide] | 125 nM |
